Literature values as cited in patent EP4759824A1, “DANSYLAMIDE-MODIFIED COMPOUNDS TARGETING PSMA, PREPARATION METHOD THEREFOR, AND USE THEREOF” (Yantai Lannacheng Biotechnology Co., Ltd., priority 2023, dated 2025).

Test system: PSMA-positive mCRPC
Conditions: combined with SOC, mCRPC patients

Q: With “lutetium Lu-177 vipivotide tetraxetan [^177Lu-PSMA-617]” as the substance, how does the “median radiographic progression-free survival” value (SOC alone 3.4 months) read?
A: 8.7 months

Q: And the median overall survival (SOC alone 11.3 months)?
A: 15.3 months
